Results reported in the supplement of paper PMC10307832.

Columns and labels:
Experiment in all cases: relative viability (nuclei count vs DMSO), 5 days (fraction); higher = more cells survive
KN-93 + Olaparib = compound: CN(C/C=C/C1=CC=C(C=C1)Cl)CC2=CC=CC=C2N(CCO)S(=O)(=O)C3=CC=C(C=C3)OC [KN-93] + O=C(c1cc(Cc2n[nH]c(=O)c3ccccc23)ccc1F)N1CCN(C(=O)C2CC2)CC1 [Olaparib] (partner 8 µM)
Procedure, shortened: (§1)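 Lung cancer cell lines, seeded in 1536-well plates, were treated the following day by pin tool with a single drug or with five library-drug doses (not always all listed) in √10 steps on top of a fixed anchor-drug dose. Cells were fixed and nuclei stained in one step after 5 days, and nuclei were counted. Relative viability is the nuclei count for treated wells divided by that for vehicle wells, reported as medians of duplicate plates.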

KN-93 + Dasatinib = compound: CN(C/C=C/C1=CC=C(C=C1)Cl)CC2=CC=CC=C2N(CCO)S(=O)(=O)C3=CC=C(C=C3)OC [KN-93] + Cc1nc(Nc2ncc(C(=O)Nc3c(C)cccc3Cl)s2)cc(N2CCN(CCO)CC2)n1 [Dasatinib] (partner 0.075 µM)
Procedure, shortened: as §1

KN-93 + Foretinib = compound: CN(C/C=C/C1=CC=C(C=C1)Cl)CC2=CC=CC=C2N(CCO)S(=O)(=O)C3=CC=C(C=C3)OC [KN-93] + COc1cc2c(Oc3ccc(NC(=O)C4(C(=O)Nc5ccc(F)cc5)CC4)cc3F)ccnc2cc1OCCCN1CCOCC1 [Foretinib] (partner 0.25 µM)
Procedure, shortened: as §1

KN-93 + Decitabine = compound: CN(C/C=C/C1=CC=C(C=C1)Cl)CC2=CC=CC=C2N(CCO)S(=O)(=O)C3=CC=C(C=C3)OC [KN-93] + Nc1ncn([C@H]2C[C@H](O)[C@@H](CO)O2)c(=O)n1 [Decitabine] (partner 2 µM)
Procedure, shortened: as §1

KN-93 + Navitoclax = compound: CN(C/C=C/C1=CC=C(C=C1)Cl)CC2=CC=CC=C2N(CCO)S(=O)(=O)C3=CC=C(C=C3)OC [KN-93] + CC1(C)CCC(c2ccc(Cl)cc2)=C(CN2CCN(c3ccc(C(=O)NS(=O)(=O)c4ccc(N[C@H](CCN5CCOCC5)CSc5ccccc5)c(S(=O)(=O)C(F)(F)F)c4)cc3)CC2)C1 [Navitoclax] (partner 0.5 µM)
Procedure, shortened: as §1

| Cell Line | relative viability (KN-93 + Olaparib; first compound 0.08 µM) | relative viability (KN-93 + Olaparib; first compound 0.253 µM) | relative viability (KN-93 + Olaparib; first compound 2.53 µM) | relative viability (KN-93 + Olaparib; first compound 8 µM) | relative viability (KN-93 + Dasatinib; first compound 0.08 µM) | relative viability (KN-93 + Dasatinib; first compound 0.253 µM) | relative viability (KN-93 + Dasatinib; first compound 2.53 µM) | relative viability (KN-93 + Dasatinib; first compound 8 µM) | relative viability (KN-93 + Foretinib; first compound 0.08 µM) | relative viability (KN-93 + Foretinib; first compound 0.253 µM) | relative viability (KN-93 + Foretinib; first compound 2.53 µM) | relative viability (KN-93 + Foretinib; first compound 8 µM) | relative viability (KN-93 + Decitabine; first compound 0.08 µM) | relative viability (KN-93 + Decitabine; first compound 0.253 µM) | relative viability (KN-93 + Decitabine; first compound 2.53 µM) | relative viability (KN-93 + Decitabine; first compound 8 µM) | relative viability (KN-93 + Navitoclax; first compound 0.08 µM) | relative viability (KN-93 + Navitoclax; first compound 0.253 µM) | relative viability (KN-93 + Navitoclax; first compound 2.53 µM) | relative viability (KN-93 + Navitoclax; first compound 8 µM) |
| --- | --- | --- | --- | --- | --- | --- | --- | --- | --- | --- | --- | --- | --- | --- | --- | --- | --- | --- | --- | --- |
| NCI-H2126 | 0.819 | 1.08 | 0.931 | 0.772 | 0.565 | 0.468 | 0.578 | 0.364 | 1.14 | 0.899 | 1.23 | 1.11 | 0.51 | 0.522 | 0.656 | 0.475 | 0.814 | 0.785 | 0.929 | 0.809 |
| COR-L 105 | 0.722 | 0.499 | 0.545 | 0.661 | 0.363 | 0.277 | 0.302 | 0.239 | 0.987 | 1.05 | 1.02 | 0.73 | 0.635 | 0.657 | 0.667 | 0.634 | 0.733 | 0.639 | 0.731 | 0.514 |
| PC-3 [JPC-3] | 0.929 | 1.06 | 1.23 | 0.956 | 0.941 | 1.11 | 1.03 | 0.673 | 0.98 | 1.14 | 1 | 0.784 | 0.786 | 0.781 | 0.919 | 0.739 | 0.75 | 0.824 | 0.913 | 0.64 |
| LU99A | 0.257 | 0.271 | 0.244 | 0.264 | 0.479 | 0.59 | 0.419 | 0.406 | 0.884 | 0.896 | 0.817 | 0.676 | 0.777 | 0.893 | 0.859 | 0.711 | 0.86 | 0.787 | 0.763 | 0.609 |
| NCI-H2347 | 0.491 | 0.59 | 0.606 | 0.497 | 0.322 | 0.273 | 0.288 | 0.245 | 1.12 | 0.656 | 1.25 | 0.593 | 0.57 | 0.617 | 0.643 | 0.539 | 0.696 | 0.843 | 0.794 | 0.543 |
| 201T | 0.847 | 0.857 | 0.904 | 0.706 | 0.604 | 0.421 | 0.533 | 0.342 | 1.06 | 0.711 | 1.08 | 0.566 | 0.866 | 0.887 | 0.758 | 0.583 | 1.23 | 1.21 | 1.19 | 1.07 |
| NCI-H2009 | 0.683 | 0.815 | 0.656 | 0.528 | 0.326 | 0.29 | 0.236 | 0.159 | 1.2 | 1.37 | 1.29 | 0.914 | 0.421 | 0.393 | 0.399 | 0.317 | 1.16 | 1.21 | 1.23 | 0.869 |
| NCI-H322M | 0.766 | 0.817 | 0.706 | 0.689 | 0.256 | 0.25 | 0.26 | 0.204 | 0.959 | 0.933 | 0.984 | 0.762 | 0.733 | 0.725 | 0.69 | 0.699 | 1.19 | 1.09 | 1.2 | 1.11 |
| HARA | 0.524 | 0.584 | 0.718 | 0.336 | 0.246 | 0.283 | 0.248 | 0.104 | 0.918 | 1.37 | 0.887 | 0.532 | 0.572 | 0.554 | 0.641 | 0.506 | 0.983 | 1.22 | 1.02 | 0.687 |
| NCI-H2405 | 0.937 | 0.798 | 0.916 | 0.693 | 0.222 | 0.238 | 0.491 | 0.204 | 1.05 | 0.995 | 1.01 | 0.75 | 0.741 | 0.736 | 0.77 | 0.593 | 0.94 | 0.833 | 0.767 | 0.592 |
| NCI-H2023 | 0.454 | 0.542 | 0.606 | 0.324 | 0.494 | 0.472 | 0.647 | 0.244 | 0.935 | – | 0.981 | 0.627 | 0.189 | 0.239 | 0.219 | 0.201 | 1 | 1.22 | 1.05 | 0.789 |
| PC-14 | 0.252 | 0.195 | 0.252 | 0.218 | 0.335 | 0.18 | 0.198 | 0.0533 | 0.797 | 0.988 | 1.12 | 1.01 | 0.205 | 0.2 | 0.244 | 0.194 | 0.851 | 1 | 1.21 | 0.977 |
| A-427 | 0.783 | 0.559 | 0.765 | 0.51 | 0.71 | 0.668 | 0.672 | 0.324 | 1.06 | 1.11 | 1.04 | 0.807 | 0.579 | 0.511 | 0.546 | 0.496 | 0.93 | 0.843 | 0.991 | 0.664 |
| NCI-H1355 | 0.628 | 0.67 | 0.766 | 0.477 | 0.588 | 0.551 | 0.695 | 0.503 | 0.879 | 0.984 | 1.03 | 0.868 | 0.367 | 0.298 | 0.317 | 0.315 | 0.874 | 0.722 | 0.916 | 0.74 |
| SK-LU-1 | 0.412 | 0.471 | 0.463 | 0.276 | 0.192 | 0.179 | 0.188 | 0.17 | 0.768 | 1.05 | 0.938 | 0.48 | 0.627 | 0.702 | 0.633 | 0.364 | 0.748 | 0.849 | 1.3 | 0.538 |
